The results in this text go back to patent US4874856A, “3-(substituted)propenyl-7-(aminothiazolylacetamido) ceph-3-em-4-carboxylic acids and esters thereof” (Bristol-Myers Company, priority 1987, dated 1989).

For data set [1], the system named is Penicillin(PC)sensitive S. aureus. The data set is described as follows: In vitro MIC, two-fold serial agar dilution in Mueller-Hinton agar, Gp-Ia strains. It counts as cell-based. Particulars: Staphylococcus aureus; GpIa, 5 strains; read-out: Geometric mean of MIC, GpIa. As for the experimental part: (§1) The in vitro antibacterial activity of the parent cephalosporanic acids of Formula I wherein R^4 is hydrogen is shown in Table 1 in terms of geometric mean of the Minimum Inhibitory Concentrations (MIC's) which were determined by the two-fold serial agar dilution method in Mueller-Hinton agar against 25 strains of test organisms in five groups.
Gp-Ia: Penicillin(PC)sensitive S. aureus
Background: Agar dilution tests growth on a series of plates holding different concentrations.

Another data set deals with PCresistant S. aureus. The data set is described as follows: In vitro MIC, two-fold serial agar dilution in Mueller-Hinton agar, GpIb strains. It is filed as cell-based. The following applies: Staphylococcus aureus, 5 strains, read-out: Geometric mean of MIC, GpIb. The protocol:
as §1
GpIb: PCresistant S. aureus

A short description of data set [2]: Mouse blood levels after oral administration (Table 2). It counts as in vivo.
The test system of data set [3] is M. morcanii (1), E. cloacae (2) and S. marcescens (2). The data set is described as follows: In vitro MIC, two-fold serial agar dilution in Mueller-Hinton agar, GnII strains. It counts as cell-based. The following applies: Enterobacter cloacae, read-out: Geometric mean of MIC, GnII. The protocol:
as §1
GnII: M. morcanii (1), E. cloacae (2) and S. marcescens (2)

The subject of data set [4] is CETresistant E. coli (3) and K. pneumoniae (2). The data set is described as follows: In vitro MIC, two-fold serial agar dilution in Mueller-Hinton agar, GnIb strains. It counts as cell-based. Particulars: Escherichia coli, 5 strains, read-out: Geometric mean of MIC, GnIb. The protocol: as §1
GnIb: CETresistant E. coli (3) and K. pneumoniae (2)

The subject of data set [5] is Cephalothin(CET)sensitive E. coli (2 strains), K. pneumoniae (1) an P. mirabilis (2). The data set is described as follows: In vitro MIC, two-fold serial agar dilution in Mueller-Hinton agar, GnIa strains. The following applies: 5 strains, read-out: Geometric mean of MIC, GnIa. It is filed as cell-based. The protocol: as §1
GnIa: Cephalothin(CET)sensitive E. coli (2 strains), K. pneumoniae (1) an […]

A further data set deals with E. coli Juhl. The data set is described as follows: Evaluation in vivo (mouse), oral PD50 against E. coli Juhl. The following applies: Escherichia coli. The text has this:
(§2) Tables 4 and 5 show the in vivo activity of pro-drug esters 88-92 including the bioavailability thereof as reflected by blood levels.

The nature of data set [6]: Bioavailability in mouse as reflected by blood levels (Table 5). It counts as in vivo. Particulars: oral, Table 5 (definition given as drawing 18).
Excerpt: as §2

The next data set deals with S. aureus Smith. The data set can be described thus: Evaluation in vivo (mouse), oral PD50 against S. aureus Smith. Particulars: Staphylococcus aureus.
Excerpt: as §2

Data set [7] can be described thus: Evaluation in vivo (mouse), blood concentration (Table 4). Particulars: po, treated orally, single 100 mg/kg dose. As for the experimental part: as §2
*treated orally, single 100 mg/kg. dose

Setting [8] is: mouse blood, 20 mg/kg, read-out: AUC.
The mark [9] stands for this setting: mouse blood, 20 mg/kg, read-out: T 1/2 (converted).
[10] abbreviates: mouse blood, 100 mg/kg, read-out: AUC.
[11] abbreviates: mouse blood, 100 mg/kg, read-out: Cmax.
Where [12] appears, read: mouse blood, 100 mg/kg, read-out: T 1/2 (converted).

The structures appear in SMILES notation. In brackets after ≈: the same amount, converted by molar mass. Where two headings read alike, the source gives them in different places.

As usually defined, the MIC is the lowest concentration found to suppress growth. In general, AUC refers to the area under the concentration-time curve, a measure of exposure. As for `N[C@@H](C(=O)N[C@@H]1C(=O)N2C(C(=O)O)=C(Cl)CS[C@H]12)c1ccccc1` [Cefaclor, reference compound], the MIC was 0.7 µg/mL (≈ 1.9 µM) in data set [1]; 4.7 µg/mL (≈ 12.8 µM) with PCresistant S. aureus; greater than 100 µg/mL in [3]; 11 µg/mL (≈ 29.9 µM) in [4]; 0.92 µg/mL (≈ 2.5 µM) in data set [5]. Besides, the AUC in data set [2] (mouse, in vivo, 20 mg/kg) is 8900 ng·h/mL; in [2] (mouse, in vivo, 100 mg/kg), 35000 ng·h/mL. Besides, the half-life in data set [2] (mouse, in vivo, 20 mg/kg) is 0.91 h; in data set [2] (mouse, in vivo, 100 mg/kg), 1.2 h.

As a reminder, the Cmax is the peak of the concentration-time curve. With `CC1=C(C(=O)O)N2C(=O)[C@@H](NC(=O)[C@H](N)c3ccc(O)cc3)[C@H]2SC1` [Cefadroxil, reference compound], the MIC is 1.4 µg/mL (≈ 3.85 µM) in data set [1]; 3.6 µg/mL (≈ 9.91 µM) with PCresistant S. aureus; greater than 100 µg/mL in data set [3]; 17 µg/mL (≈ 46.8 µM) in data set [4]; 8.3 µg/mL (≈ 22.8 µM) in data set [5]. In addition, the AUC in data set [2] (setting [8]) is 16000 ng·h/mL; in data set [2] (setting [10]) it was 69000 ng·h/mL. Moreover, the results for the half-life in [2] (setting [9]) and in data set [2] (setting [12]) were 1.4 h and 1.6 h, respectively. Further, the Cmax in data set [2] (setting [11]) was determined as 57000 ng/mL.

For the compound `C=CC1=C(C(=O)O)N2C(=O)[C@@H](NC(=O)/C(=N\OCC(=O)O)c3csc(N)n3)[C@H]2SC1` [Cefixime, cefixime], the MIC in data set [1] was determined as 4.7 µg/mL (≈ 10.4 µM); in the data set on PCresistant S. aureus it was 12.5 µg/mL (≈ 27.6 µM); in data set [3] it was 3.2 µg/mL (≈ 7.06 µM); in [4], 3.1 µg/mL (≈ 6.84 µM); in [5] it was 0.016 µg/mL (≈ 0.0353 µM). Moreover, the results for the AUC in data set [2] (setting [8]) and in [2] (setting [10]) were 25000 ng·h/mL and 75000 ng·h/mL, respectively. Moreover, the Cmax stood at 10000 ng/mL in data set [2] (mouse blood, 20 mg/kg, read-out: Cmax) and 28000 ng/mL in [2] (setting [11]). Also, the half-life in [2] (setting [9]) is 1.5 h; in [2] (setting [12]), 1.6 h.

One may read the ED50 as the dose that gives a 50% effect, or the effect in half of the subjects. What is called bioavailability is the share of a dose that reaches the circulation, judged against a reference dose that is usually intravenous. For `C/C=C\C1=C(C(=O)OC(C)OC(C)=O)N2C(=O)[C@@H](NC(=O)/C(=N\O)c3csc(N)n3)[C@H]2SC1` (stereo partly drawn) [Compound 30, 1-acetoxyethyl 7β-[(Z)-2-(2-aminothiazol-4-yl)-2-(hydroxyimino)acetamido]-3-[(Z)-prop-1-en-1-yl]-3-cephem-4-carboxylate], it took a dose of 1.1 mg/kg to reach the 50% effect level with E. coli Juhl (Table 5) (ED50). Besides, in data set [2] (mouse, in vivo, 20 mg/kg), the AUC turned out to be 16000 ng·h/mL, the Cmax is 9900 ng/mL and the half-life was 1 h. In data set [2] (mouse, in vivo, 100 mg/kg), this compound gave an AUC of 61000 ng·h/mL, a Cmax of 36000 ng/mL and a half-life of 1.3 h. The same compound came in with a bioavailability in [6] of 76%. The compound also showed an ED50 in the data set with S. aureus Smith (Table 5) of 2 mg/kg.

As for `C/C=C/C1=C(C(=O)O)N2C(=O)[C@@H](NC(=O)/C(=N\O)c3csc(N)n3)[C@H]2SC1` [Compound 33, 7β-[(Z)-2-(2-aminothiazol-4-yl)-2-(hydroxyimino)acetamido]-3-[(E)-prop-1-en-1-yl]-3-cephem-4-carboxylic acid], the MIC came out at 0.23 µg/mL (≈ 0.562 µM) in data set [1]; 0.61 µg/mL (≈ 1.49 µM) in the data set with PCresistant S. aureus; 22 µg/mL (≈ 53.7 µM) in [3]; 1.4 µg/mL (≈ 3.42 µM) in data set [4]; 0.46 µg/mL (≈ 1.12 µM) in data set [5].

Consider `CC(=O)OC/C=C\C1=C(C(=O)O)N2C(=O)[C@@H](NC(=O)/C(=N\O)c3csc(N)n3)[C@H]2SC1` [Compound 37, 7β-[(Z)-2-(2-aminothiazol-4-yl)-2-(hydroxyimino)acetamido]-3-[(Z)-3-acetoxyprop-1-en-1-yl]-3-cephem-4-carboxylic acid], for which the MIC is 0.17 µg/mL (≈ 0.364 µM) in data set [1]; 0.4 µg/mL (≈ 0.856 µM) in the data set on PCresistant S. aureus; 1.1 µg/mL (≈ 2.35 µM) in data set [3]; 0.1 µg/mL (≈ 0.214 µM) in [4]; 0.025 µg/mL (≈ 0.0535 µM) in [5].

Turning to `C/C=C\C1=C(C(=O)O)N2C(=O)[C@@H](NC(=O)/C(=N\OC(C)=O)c3csc(N)n3)[C@H]2SC1` [Compound 53, 7β-[(Z)-2-(2-aminothiazol-4-yl)-2-(acetoxyimino)acetamido]-3-[(Z)-prop-1-en-1-yl]-3-cephem-4-carboxylic acid], the MIC stood at 0.17 µg/mL (≈ 0.377 µM) in data set [1]; 0.4 µg/mL (≈ 0.886 µM) in the data set with PCresistant S. aureus; 3.6 µg/mL (≈ 7.97 µM) in data set [3]; 0.26 µg/mL (≈ 0.576 µM) in data set [4]; 0.057 µg/mL (≈ 0.126 µM) in data set [5].

In [2] (mouse, in vivo, 20 mg/kg), `C/C=C\C1=C(C(=O)OC(C)OC(C)=O)N2C(=O)[C@@H](NC(=O)/C(=N\OC(C)=O)c3csc(N)n3)[C@H]2SC1` (stereo partly drawn) [Compound 55, 1-acetoxyethyl 7β-[(Z)-2-(2-aminothiazol-4-yl)-2-(acetoxyimino)acetamido]-3-[(Z)-prop-1-en-1-yl]-3-cephem-4-carboxylate] had an AUC of 9400 ng·h/mL, a Cmax of 7600 ng/mL and a half-life of 0.8 h. In data set [2] (mouse, in vivo, 100 mg/kg), this compound gave an AUC of 40000 ng·h/mL, a Cmax of 27000 ng/mL and a half-life of 0.8 h.

The compound `C/C=C\C1=C(C(=O)OCc2oc(=O)oc2C)N2C(=O)[C@@H](NC(=O)/C(=N\O)c3csc(N)n3)[C@H]2SC1` [Compound 88, (5-methyl-2-oxo-1,3-dioxolen-4-yl)methyl 7β-[(Z)-2-(2-aminothiazol-4-yl)-2-(hydroxyimino)-acetamido]-3-[(Z)-prop-1-en-1-yl]-3-cephem-4-carboxylate] gave an ED50 with E. coli Juhl (Table 4) of 2.7 mg/kg. Besides, in [7], the AUC was 44000 ng·h/mL and the highest level (Cmax) was 16000 ng/mL. This compound also registered an ED50 in the data set on S. aureus Smith (Table 4) of 1.1 mg/kg.

As for `C/C=C\C1=C(C(=O)OC(C)OC(=O)OCC)N2C(=O)[C@@H](NC(=O)/C(=N\O)c3csc(N)n3)[C@H]2SC1` (stereo partly drawn) [Compound 89, 1-(ethoxycarbonyloxy)ethyl 7β-[(Z)-2-(2-aminothiazol-4-yl)-2-(hydroxyimino)-acetamido]-3-[(Z)-prop-1-en-1-yl]-3-cephem-4-carboxylate], the ED50 in the data set on E. coli Juhl (Table 4) was found to be 0.67 mg/kg. In addition, in data set [7], the AUC amounted to 74000 ng·h/mL and the highest level (Cmax) was 32000 ng/mL. In the data set on S. aureus Smith (Table 4), this compound had an ED50 of 0.77 mg/kg.

For `C/C=C\C1=C(C(=O)OC(C)OC(=O)OC2CCCCC2)N2C(=O)C(NC(=O)/C(=N\O)c3csc(N)n3)[C@H]2SC1` (some centres unmarked) [Compound 90, 1-(cyclohexyloxycarbonyloxy)ethyl 7-[(Z)-2-(2-aminothiazol-4-yl)-2-(hydroxyimino)acetamido]-3-[(Z)-1-propenyl]-3-cephem-4-carboxylate], the ED50 in the data set on E. coli Juhl (Table 5) came to 1.5 mg/kg; with S. aureus Smith (Table 5), 3.2 mg/kg. In data set [6], this compound displayed a bioavailability of 78%.

On to `C/C=C\C1=C(C(=O)OC(C)OC(=O)C(C)(C)C)N2C(=O)C(NC(=O)/C(=N\O)c3csc(N)n3)[C@H]2SC1` (some centres unmarked) [Compound 91, 1-(pivaloyloxy)ethyl 7-[(Z)-2-(2-aminothiazol-4-yl)-2-(hydroxyimino)acetamido]-3-[(Z)-1-propenyl]-3-cephem-4-carboxylate], for which the ED50 is 3.5 mg/kg in the data set on E. coli Juhl (Table 5) and 2 mg/kg in the data set with S. aureus Smith (Table 5). Also, the bioavailability in data set [6] worked out at 60%.

As to `C/C=C\C1=C(C(=O)OC(C)OC(=O)CC2CCCCC2)N2C(=O)C(NC(=O)/C(=N\O)c3csc(N)n3)[C@H]2SC1` (some centres unmarked) [Compound 92, 1-(cyclohexylacetoxy)ethyl 7-[(Z)-2-(2-aminothiazol-4-yl)-2-(hydroxyimino)acetamido]-3-[(Z)-1-propenyl]-3-cephem-4-carboxylate], the ED50 with E. coli Juhl (Table 5) turned out to be 1.4 mg/kg; in the data set on S. aureus Smith (Table 5), 2.9 mg/kg. In data set [6], the bioavailability came to 87%.
